Laboratory results: ChEMBL document CHEMBL5214964 (Bioorg Med Chem Lett, 2022)

How the values were obtained:
in vivo [1] = conditions: rat, plasma, ip, 20 mg/kg
in vivo [2] = conditions: rat, plasma, ip, 20 mg/kg; remark: listed apart in the source
in vivo [3] = conditions: rat, plasma, ip, 20 mg/kg; remark: listed apart in the source
in vivo [4] = conditions: rat, synovial fluid, ip, 20 mg/kg

## NCCNS(=O)(=O)c1ccc(-c2ccc(CSc3nc4c(c(=O)[nH]3)CCC4)cc2)cc1
In vivo [1]
  concentration at 1 h: 115 µM
In vivo [2]
  concentration at 2 h: 85 µM
In vivo [3]
  concentration at 4 h: 57 µM
In vivo [4]
  concentration at 4 h: 3.27 µM
